Measurements from publication PMC2895411 (Journal of medicinal chemistry, 2010).
“Also recorded” adds a separate entry of the source.

molecular target: T1, human TLR7 (Homo sapiens, UniProt Q9NYK1); assay: NF-κB induction, human TLR7-specific reporter gene assay; format: cell-based; conditions: not given
T1 sequence (Q9NYK1 27-1049): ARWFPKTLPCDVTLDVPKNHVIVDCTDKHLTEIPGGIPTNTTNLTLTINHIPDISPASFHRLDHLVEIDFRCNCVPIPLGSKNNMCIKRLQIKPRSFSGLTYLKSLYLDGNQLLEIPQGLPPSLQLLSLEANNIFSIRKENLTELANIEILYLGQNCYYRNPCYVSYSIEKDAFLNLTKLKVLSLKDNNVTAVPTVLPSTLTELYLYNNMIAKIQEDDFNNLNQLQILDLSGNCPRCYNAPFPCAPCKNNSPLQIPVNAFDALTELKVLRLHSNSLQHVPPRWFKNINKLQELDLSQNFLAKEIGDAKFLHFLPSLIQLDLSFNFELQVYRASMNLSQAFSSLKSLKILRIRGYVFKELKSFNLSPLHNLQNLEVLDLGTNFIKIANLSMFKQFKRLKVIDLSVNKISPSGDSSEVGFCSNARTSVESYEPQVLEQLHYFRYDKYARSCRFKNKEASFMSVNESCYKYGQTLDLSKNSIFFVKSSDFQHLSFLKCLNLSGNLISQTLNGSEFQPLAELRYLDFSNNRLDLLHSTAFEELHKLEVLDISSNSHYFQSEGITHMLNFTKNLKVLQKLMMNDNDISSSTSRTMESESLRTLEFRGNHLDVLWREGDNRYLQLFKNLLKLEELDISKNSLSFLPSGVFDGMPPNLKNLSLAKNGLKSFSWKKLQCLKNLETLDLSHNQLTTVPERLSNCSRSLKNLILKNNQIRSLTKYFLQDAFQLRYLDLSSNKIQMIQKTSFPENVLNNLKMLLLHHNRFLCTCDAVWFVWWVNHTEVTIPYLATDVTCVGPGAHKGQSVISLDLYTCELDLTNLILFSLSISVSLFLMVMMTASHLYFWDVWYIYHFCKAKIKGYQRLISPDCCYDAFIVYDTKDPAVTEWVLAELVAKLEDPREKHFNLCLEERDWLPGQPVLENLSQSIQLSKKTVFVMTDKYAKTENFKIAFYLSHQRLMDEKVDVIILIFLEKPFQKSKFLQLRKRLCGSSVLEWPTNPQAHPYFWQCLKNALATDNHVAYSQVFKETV

Compound	EC50
CC(C)Cn1cnc2c(N)nc3ccccc3c21 [Compound 1, Imiquimod, reference compound]	~2 µM

same assay, conditions: fold greater activity than 2

Compound	TLR7 activity relative to compound 2
CCCCCc1nc2c(N)nc3ccccc3c2n1Cc1ccccc1 [Compound 32, 1-Benzyl-2-pentyl-1H-imidazo[4,5-c]quinolin-4-amine]	twenty-fold greater

same assay, conditions: human TLR7 reporter gene assay

Compound	TLR7-agonistic activity, result in words
CC/N=C(/NCCCN(C)C)N(CC)Cc1nc2c(N)nc3ccccc3c2n1CC(C)(C)O [Compound 6, 1-((4-Amino-1-(2-hydroxy-2-methylpropyl)-1H-imidazo[4,5-c]quinolin-2-yl)methyl)-3-(3-(dimethylamino)propyl)-1,2-diethylguanidine]	bereft of activity
CCCCCCCCCCCNCc1nc2c(N)nc3ccccc3c2n1CC(C)(C)O [Compound 22, 1-(4-Amino-2-((undecylamino)methyl)-1H-imidazo[4,5-c]quinolin-1-yl)-2-methylpropan-2-ol]	complete loss of activity; also recorded: completely inactive
CCCCc1nc2cnc3ccccc3c2n1Cc1ccccc1 [Compound 50, 1-Benzyl-2-butyl-1H-imidazo[4,5-c]quinoline]	completely inactive
CCCCCc1nc2c(O)nc3ccccc3c2n1Cc1ccccc1 [Compound 46, 1-Benzyl-2-pentyl-1H-imidazo[4,5-c]quinolin-4-ol]	completely inactive
CCCCCc1nc2c(-c3ccccc3)nc3ccccc3c2n1Cc1ccccc1 [Compound 47, 1-Benzyl-2-pentyl-4-phenyl-1H-imidazo[4,5-c]quinoline]	completely inactive
CCN(Cc1nc2c(N)nc3ccccc3c2n1CC(C)(C)O)C(C)=O [Compound 4, N-((4-Amino-1-(2-hydroxy-2-methylpropyl)-1H-imidazo[4,5-c]quinolin-2-yl)methyl)-N-ethylacetamide]	bereft of activity
CCCNC(=O)n1c(=O)n(Cc2ccccc2)c2c3ccccc3ncc21 [Compound 57, 1-Benzyl-2-oxo-N-propyl-1H-imidazo[4,5-c]quinoline-3(2H)-carboxamide]	completely inactive
Nc1nc2ccccc2c2c1nnn2Cc1ccccc1 [Compound 56, 1-Benzyl-1H-[1,2,3]triazolo[4,5-c]quinolin-4-amine]	completely inactive
CCCCc1nc2c(NN)nc3ccccc3c2n1Cc1ccccc1 [Compound 49, 1-Benzyl-2-butyl-4-hydrazinyl-1H-imidazo[4,5-c]quinoline]	substantially weaker
Clc1nc2ccccc2c2c1nnn2Cc1ccccc1 [Compound 55, 1-Benzyl-4-chloro-1H-[1,2,3]triazolo[4,5-c]quinoline]	completely inactive
C=CCCc1nc2c(N)nc3ccccc3c2n1Cc1ccccc1 [Compound 38, 1-Benzyl-2-(but-3-enyl)-1H-imidazo[4,5-c]quinolin-4-amine]	decrease in potency
CCN(CC)Cc1nc2c(N)nc3ccccc3c2n1CC(C)(C)O [Compound 3, 1-(4-Amino-2-((diethylamino)methyl)-1H-imidazo[4,5-c]quinolin-1-yl)-2-methylpropan-2-ol]	partial activity
CCN(CCOCCOCCN)Cc1nc2c(N)nc3ccccc3c2n1CC(C)(C)O [Compound 11, 1-(4-Amino-2-(((2-(2-(2-aminoethoxy)ethoxy)ethyl) (ethyl)amino)methyl)-1H-imidazo[4,5-c]quinolin-1-yl)-2-methylpropan-2-ol]	completely inactive
CCNCc1nc2c(N)nc3ccccc3c2n1Cc1ccccc1 [Compound 52, 1-Benzyl-2-((ethylamino)methyl)-1H-imidazo[4,5-c]quinolin-4-amine]	very active
CCN(CCCNC(=S)NCCCNCCCCNCCCN)Cc1nc2c(N)nc3ccccc3c2n1CC(C)(C)O [Compound 16, 1-(3-(((4-amino-1-(2-hydroxy-2-methylpropyl)-1H-imidazo[4,5-c]quinolin-2-yl)methyl)(ethyl)amino)propyl)-3-(3-(4-(3-aminopropylamino)butylamino)propyl) thiourea]	inactive
C#CCCc1nc2c(N)nc3ccccc3c2n1Cc1ccccc1 [Compound 43, 1-Benzyl-2-(but-3-ynyl)-1H-imidazo[4,5-c]quinolin-4-amine]	decrease in potency
CCCCCCCCCCCCCCCC(=O)N(CC)Cc1nc2c(N)nc3ccccc3c2n1CC(C)(C)O [Compound 5, N-((4-Amino-1-(2-hydroxy-2-methylpropyl)-1H-imidazo[4,5-c]quinolin-2-yl)methyl)-N-ethylpalmitamide]	bereft of activity
CCCCCc1nc2c(Cl)nc3ccccc3c2n1Cc1ccccc1 [Compound 44, 1-Benzyl-4-chloro-2-pentyl-1H-imidazo[4,5-c]quinoline]	completely inactive
CCCCc1nc2c(NO)nc3ccccc3c2n1Cc1ccccc1 [Compound 48, N-(1-Benzyl-2-butyl-1H-imidazo[4,5-c]quinolin-4-yl)hydroxylamine]	substantially weaker
